Earlier results as cited in patent US8633181B2, “Treatment of cutaneous hemangioma” (Rutgers, The State University of New Jersey, priority 2009, dated 2014).

System: severe hemangioma of infants
Details: systemic propranolol

CC(C)NCC(O)COc1cccc2ccccc12 (stereo not shown) [propranolol]
time to significant shrinkage of the hemangioma after initiation: about 24 hours
